According to patent publication EP0155094A1, “2-Arylimidazo(4,5-c)pyridines” (ELI LILLY AND COMPANY, priority 1984, dated 1985):
Counter-ions that a name gives are not always drawn.

Legend:
[1] = tested on: cardiac contractility; assay: Cardiac contractility in anesthetized dogs; format: in vivo, Mongrel dogs; settings: Canis lupus familiaris, iv, i.v. bolus, read-out: ED50 (dose, i.v., which produced a peak increase of 50% over control)
Experimental: Mongrel dogs of either sex ranging in weight from 7 to 14 kg. were used. Anesthesia was induced with sodium pentobarbital (30 mg./kg., i.v.) and maintained with supplemental doses as required. A positive-pressure pump was used to ventilate the dogs through an endotracheal tube (18 strokes/minute, 20 ml./kg. stroke 1), and a heating pad kept the body temperature at 37-38°C. Femoral arterial blood pressure was measured through a polyethylene catheter filled with heparin solution (16 units/ml.) and connected to a Statham pressure transducer. A strain-gauge arch sutured to the right ventricle of the heart measured cardiac contractility. Tension on the gauge was adjusted to 50 g. and the gain of the recorder (Beckman dynograph) was set so that 50 g. caused a 10-mm. pen deflection; cardiac contractile tension was measured as millimeters of pen deflection or grams of tension. The drug was administered following a 30-45 minute equilibrium period as an i.v. bolus (2-5 ml.) in a normal saline vehicle. […] The maximum effects on contractility at various dose levels were calculated as a percent of control (control = 100 percent). The compound of Example 1 produced an ED50 (dose, i.v., which produced a peak increase of 50% over control) of 0.030 mg./kg. while the compound of Example 2 gave an ^ED50 of 6 mcg./kg.

[2] = tested on: Isolated Cat Papillary Muscles; assay: Positive inotropic activity in isolated cat papillary muscles; set-up: species or system Cats; settings: Felis catus, maximum contractility, isolated cat papillary muscle, read-out: contractility, percent of control (control = 100 percent); for activity at 100 µM: 10^-4 M; for activity at 10 µM: 10^-5 M
Experimental: Cats of either sex were anesthetized with Metofane (1,1-difluoro-2,2-dichloroethyl methyl ether, Pittman-Moore) their hearts immediately removed and the papillary muscles dissected and suspended in individual organ baths. A platinum hook secured one end of the muscle to an electrode mounted in the bottom of the bath, and a silk thread attached the tendon to a Statham isometric transducer. The baths contained Krebs-Henseleit solution (36°C., bubbled with 95 percent oxygen - 5 percent carbon dioxide) of the following millimolar composition: NaCl, 118; KCl, 4.5; CaCl2, 2.5; KH2PO4, 1.1; MgS04, 1.2; NaHCO3, 25; and glucose, 11.
A base-line tension of 1.5 g. was applied to each muscle. Square-wave pulses (5.0 msec. in duration, 20 percent above threshold voltage) delivered through the hook electrode and a second electrode positioned near the top of the muscle evoked 12 contractions/minute, which were recorded on a Grass polygraph. After the muscles were equilibrated for 60 minutes, drugs were introduced in normal saline to bring the final concentration of the drug to 10 5 or 10^-4 molar. Increases in contractility were tabulated as millimeters of pen deflection in excess of the baseline values. In each experiment the maximum contractility was measured. As a percent of control (control = 100 percent), the compound of Example 1 produced a contractility of 149% at 10^-5 M and 168% at 10^-4 M and the compound of Example 2 gave a contractility of 240% at 10^-5M and 326% at 10^-4M.

Structure (SMILES) | ED50 [1] [mg/kg] | activity at 100 µM [2] [%] | activity at 10 µM [2] [%]
COc1cc(OS(C)(=O)=O)ccc1-c1nc2cnccc2[nH]1 [Example 2, 4-(Imidazo[4,5-c]pyridin-2-yl)-3-methoxyphenol, methanesulfonate (ester) hydrochloride] | 0.006 | 326 | 240
COc1cc(NS(C)(=O)=O)ccc1-c1nc2cnccc2[nH]1 [Example 1, 2-(2-Methoxy-4-methylsulfonamidophenyl)imidazo[4,5-c]pyridine] | 0.03 | 168 | 149
